Source: patent US20180105492A1, “COMPOUNDS DERIVED FROM 3-ALKYLAMINE-1H-INDOLYL ACRYLATE AND THEIR USE IN THE TREATMENT OF NEURODEGENERATIVE DISEASES” (FUNDACION PARA LA INVESTIGACION BIOMEDICA DEL HOSPITAL …, priority 2014, published 2018)

How the values were obtained:
[1] = system: Nrf2 transcription factor (Nrf2-ARE); experiment: Nrf2-ARE induction, luciferase activity in AREc32 (MCF7 cells stably transfected with ARE-LUC); assay type: cell-based; conditions: Homo sapiens, 24 h, basal = 1, read-out: Relative Luciferase activity (response versus basal)
Protocol: For the study of Nrf2 transcription factor, the cellular line AREC32 was used, which is characterized for being stably transfected with the reporter gene of Luciferase linked to the ARE sequence. In the presence electrophilic compounds or oxidative stress, Nrf2 factor binds to ARE sequences, activating luciferase expression and producing a proportional quantity of luciferase. The AREc32 cells were cultured in DMEM media with glutamax, supplemented with 10% fetal bovine serum (FBS), 1% penicillin-streptomycin and 1.6% geneticine (G418) (obtained from GIBCO, Madrid, Spain). Cells were cultured in 75 cm flasks with 11 mL of specific media, incubated at 37° C. and 5% of CO2. Cells were passed every 4-6 days (1:4), whenever the confluence reached 80%. For the experiments, cells were cultured in transparent surface 96 well plates at a density of […] with 100 μL/well. After 24 h in culture, cells were treated with the compounds at different concentrations (1, 10, 30 and 60 μM) during 24 h at 37° C. and 5% CO2. In every experiment it was also included a basal variable, a variable with 10 μM tert-butyl hydroquinone (TBHQ) (positive control) and the variables of the study in a final volume of 100 μL. After an incubation of 24 h with the compounds, luciferase activity was measured by bioluminescence using the commercial kit “Luciferase assay system” (Promega E1500). For that, treatments were removed and cells were washed with 100 μL of PBS 0.1 M. After washing, 20 μL of “lysis buffer” reactive was added to each well. 10 minutes later, luminescence was measured using the multi-well reader FluoStar optima (BMG labtech).
Luminescence was measured in arbitrary units and is directly proportional to luciferase quantity in the wells, which is also directly proportional to Nrf2 transcription factor induction by the specific compound at the established concentration. Measurements were made in duplicate and values were normalized to the basal luminescence value, considered as 1.
The results of Nrf2 induction obtained for the compounds 1 to 16 are shown in Table 1 and are expressed as induction, considering 1 the non-treated cells.

[2] = system: Nrf2 transcription factor (Nrf2-ARE); experiment: as above; assay type: cell-based; conditions: Homo sapiens, 24 h, basal = 1, read-out: Relative Luciferase activity (response versus basal); remark: listed apart in the source

CCOC(=O)C=Cc1ccccc1 [Ethyl Cinnamate, reference compound]
fold induction at 10 µM ([1]; 10 μM): 1.46 ± 0.1 | fold induction at 30 µM ([1]; 30 μM): 1.4 ± 0.1 | fold induction at 60 µM ([1]; 60 μM): 1.55 ± 0.1

CC(C)(C)c1cc(O)ccc1O [TBHQ, tert-butyl hydroquinone]
fold induction at 3 µM ([2]; 3 μM): 3.83 ± 0.3 | fold induction at 6 µM ([2]; 6 μM): 6.1 ± 0.1 | fold induction at 1 µM ([1]; 1 μM): 2.19 ± 0.1
